Consider 1 compound from patent publication US12070458B2, “Therapeutic agent composition and method of use, for treatment of mild congnitive impairment, depression, and psychological disorders” (priority 2018, dated 2024).

The test system of this experiment is immobility behavior. The experiment in a line: Mouse Forced Swim Test (mFST). In kind it is in vivo, mice. The note with it: 1 mg/Kg i.v. thirty minutes before swim session. The protocol:
Forced Swim Test (FST) is an animal model used to assess antidepressant compounds in preclinical studies. The FST was performed similar to the method of Porsolt et al. with modifications (Porsolt R D, Bertin A, Jalfre M. Behavioral despair in mice: a primary screening test for antidepressants. Arch Int Pharmacodyn Thér 1977; 229:327-36).
In this experiment, mice are forced to swim in an inescapable cylinder filled with water. Under these conditions, mice will initially try to escape and eventually develop immobility behavior; this behavior is interpreted as a passive stress-coping strategy or depression-like behavior. Swim tanks were positioned inside a box made of plastic. […] The duration of immobility was evaluated during the total 6 min of the test and expressed as duration (sec) of immobility. […]
In order to avoid the risk of obtaining the false positive\negative effects in the FST caused by a possible influence of the tested drugs on the locomotor activity, spontaneous locomotor activity was measured using an animal activity meter Opto-Varimex-4 Auto-Track (Columbus Instruments, USA). […] Spontaneous locomotor activity was evaluated between the 2nd and the 6th min, which corresponds with the time interval analysed in the FST. […]
Drug levels were 215 nM in the plasma. The NR2B receptor occupancy was determined to be 68%.

Structures are written as SMILES.

For the compound `O=C1NCC(=O)N2CCC[C@@H]12` [cPG, cyclic Prolyl Glycine], the immobility time result is “statistically significant decrease”.
